According to ChEMBL document CHEMBL1201862, “PubChem BioAssay data set” (2004):
Calls of active or inactive are those of the source.

Experiments:
[1] = molecular target: Beta Lactamase (Pseudomonas aeruginosa, UniProt Q932Y6);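 further: confirmatory high-throughput screen measuring VIM-2 metallo-beta-lactamase inhibition by epi-absorbance in dose response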
[2] = molecular target: T1, Sentrin-specific protease 1 (Homo sapiens, UniProt Q9P0U3); assay: Dose response confirmation of small molecule inhibitors of the catalytic domain of the SUMO protease, SENP1 in a FRET assay.; assay type: functional; conditions: read-out: IC50_Mean
T1 sequence (Q9P0U3 whole entry): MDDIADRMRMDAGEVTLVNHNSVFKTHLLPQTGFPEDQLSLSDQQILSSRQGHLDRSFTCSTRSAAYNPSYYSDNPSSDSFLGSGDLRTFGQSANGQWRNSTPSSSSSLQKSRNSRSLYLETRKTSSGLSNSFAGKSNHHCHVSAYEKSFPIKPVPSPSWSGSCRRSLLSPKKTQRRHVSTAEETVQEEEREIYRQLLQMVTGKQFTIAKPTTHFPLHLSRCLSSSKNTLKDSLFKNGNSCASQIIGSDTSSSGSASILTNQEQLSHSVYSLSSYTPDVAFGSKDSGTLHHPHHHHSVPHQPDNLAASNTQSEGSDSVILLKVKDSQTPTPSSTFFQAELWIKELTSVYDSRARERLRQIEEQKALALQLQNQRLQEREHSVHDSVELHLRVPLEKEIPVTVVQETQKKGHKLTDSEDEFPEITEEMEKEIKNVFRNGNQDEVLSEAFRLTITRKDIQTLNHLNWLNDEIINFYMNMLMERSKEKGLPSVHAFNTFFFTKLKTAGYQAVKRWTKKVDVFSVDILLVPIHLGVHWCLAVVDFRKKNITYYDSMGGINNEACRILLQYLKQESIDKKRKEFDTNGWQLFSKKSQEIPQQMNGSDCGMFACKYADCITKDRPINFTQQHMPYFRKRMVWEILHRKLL

[3] = molecular target: T1, Sentrin-specific protease 1; assay: potency of human SENP1 inhibitors, dose response, biochemical, kinetic FRET (AID 651697); assay type: functional; conditions: read-out: IC50_Mean
[4] = molecular target: Beta-lactamase (Pseudomonas aeruginosa, UniProt Q79MP6);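 further: biochemical dose-response test of metallo-beta-lactamase enzyme inhibition, read out by epi-absorbance; purified recombinant IMP-1 metallo-beta-lactamase with nitrocefin as substrate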
Sequence of Beta-lactamase (Pseudomonas aeruginosa, UniProt Q79MP6) (Q79MP6 whole entry): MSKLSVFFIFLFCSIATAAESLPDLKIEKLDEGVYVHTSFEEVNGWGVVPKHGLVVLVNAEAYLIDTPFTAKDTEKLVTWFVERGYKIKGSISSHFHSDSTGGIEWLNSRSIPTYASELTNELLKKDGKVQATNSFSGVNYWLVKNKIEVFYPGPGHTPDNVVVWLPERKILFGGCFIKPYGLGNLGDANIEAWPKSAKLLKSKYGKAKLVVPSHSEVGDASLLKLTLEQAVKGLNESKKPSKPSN

[5] = molecular target: Beta-lactamase (Salmonella choleraesuis (strain SC-B67), UniProt Q5J463)
Sequence of Beta-lactamase (Salmonella choleraesuis (strain SC-B67), UniProt Q5J463) (Q5J463 whole entry): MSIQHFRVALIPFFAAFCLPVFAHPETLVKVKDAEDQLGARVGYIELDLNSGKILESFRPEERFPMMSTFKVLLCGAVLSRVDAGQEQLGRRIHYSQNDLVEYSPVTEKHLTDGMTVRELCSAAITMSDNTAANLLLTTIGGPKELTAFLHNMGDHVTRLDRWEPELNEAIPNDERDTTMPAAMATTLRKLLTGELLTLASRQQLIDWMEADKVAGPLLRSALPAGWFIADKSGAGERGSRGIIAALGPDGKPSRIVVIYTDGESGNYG

[6] = molecular target: Broad substrate specificity ATP-binding cassette transporter ABCG2 (Homo sapiens, UniProt Q9UNQ0); assay: ABCG2 efflux pump inhibitors, dose response, Ig-MXP3 cells, flow cytometry (AID 1690); assay type: functional
Sequence of Broad substrate specificity ATP-binding cassette transporter ABCG2 (Q9UNQ0 whole entry): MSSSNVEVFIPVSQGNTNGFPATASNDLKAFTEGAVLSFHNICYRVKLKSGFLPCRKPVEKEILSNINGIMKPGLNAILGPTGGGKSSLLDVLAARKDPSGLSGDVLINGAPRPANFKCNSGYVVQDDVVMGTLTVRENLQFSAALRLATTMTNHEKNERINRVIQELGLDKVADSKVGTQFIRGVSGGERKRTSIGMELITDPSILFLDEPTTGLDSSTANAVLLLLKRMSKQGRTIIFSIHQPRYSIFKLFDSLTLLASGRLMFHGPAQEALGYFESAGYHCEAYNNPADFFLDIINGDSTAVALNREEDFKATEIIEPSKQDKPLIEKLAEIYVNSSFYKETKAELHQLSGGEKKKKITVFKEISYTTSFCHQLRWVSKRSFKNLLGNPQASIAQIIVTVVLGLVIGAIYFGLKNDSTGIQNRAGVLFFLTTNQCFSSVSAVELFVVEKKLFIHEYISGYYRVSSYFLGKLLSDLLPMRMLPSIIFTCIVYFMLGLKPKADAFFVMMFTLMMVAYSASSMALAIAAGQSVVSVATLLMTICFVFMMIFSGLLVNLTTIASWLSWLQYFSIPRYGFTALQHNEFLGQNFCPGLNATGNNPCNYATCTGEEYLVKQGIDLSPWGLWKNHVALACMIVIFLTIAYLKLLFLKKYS

[7] = molecular target: ATP-dependent translocase ABCB1 (Homo sapiens, UniProt P08183); assay: ABCB1 efflux pump inhibitor potency, dose response, Jurkat-DNR cells, JC-1, flow cytometry (AID 1689); assay type: functional
Sequence of ATP-dependent translocase ABCB1 (P08183 whole entry): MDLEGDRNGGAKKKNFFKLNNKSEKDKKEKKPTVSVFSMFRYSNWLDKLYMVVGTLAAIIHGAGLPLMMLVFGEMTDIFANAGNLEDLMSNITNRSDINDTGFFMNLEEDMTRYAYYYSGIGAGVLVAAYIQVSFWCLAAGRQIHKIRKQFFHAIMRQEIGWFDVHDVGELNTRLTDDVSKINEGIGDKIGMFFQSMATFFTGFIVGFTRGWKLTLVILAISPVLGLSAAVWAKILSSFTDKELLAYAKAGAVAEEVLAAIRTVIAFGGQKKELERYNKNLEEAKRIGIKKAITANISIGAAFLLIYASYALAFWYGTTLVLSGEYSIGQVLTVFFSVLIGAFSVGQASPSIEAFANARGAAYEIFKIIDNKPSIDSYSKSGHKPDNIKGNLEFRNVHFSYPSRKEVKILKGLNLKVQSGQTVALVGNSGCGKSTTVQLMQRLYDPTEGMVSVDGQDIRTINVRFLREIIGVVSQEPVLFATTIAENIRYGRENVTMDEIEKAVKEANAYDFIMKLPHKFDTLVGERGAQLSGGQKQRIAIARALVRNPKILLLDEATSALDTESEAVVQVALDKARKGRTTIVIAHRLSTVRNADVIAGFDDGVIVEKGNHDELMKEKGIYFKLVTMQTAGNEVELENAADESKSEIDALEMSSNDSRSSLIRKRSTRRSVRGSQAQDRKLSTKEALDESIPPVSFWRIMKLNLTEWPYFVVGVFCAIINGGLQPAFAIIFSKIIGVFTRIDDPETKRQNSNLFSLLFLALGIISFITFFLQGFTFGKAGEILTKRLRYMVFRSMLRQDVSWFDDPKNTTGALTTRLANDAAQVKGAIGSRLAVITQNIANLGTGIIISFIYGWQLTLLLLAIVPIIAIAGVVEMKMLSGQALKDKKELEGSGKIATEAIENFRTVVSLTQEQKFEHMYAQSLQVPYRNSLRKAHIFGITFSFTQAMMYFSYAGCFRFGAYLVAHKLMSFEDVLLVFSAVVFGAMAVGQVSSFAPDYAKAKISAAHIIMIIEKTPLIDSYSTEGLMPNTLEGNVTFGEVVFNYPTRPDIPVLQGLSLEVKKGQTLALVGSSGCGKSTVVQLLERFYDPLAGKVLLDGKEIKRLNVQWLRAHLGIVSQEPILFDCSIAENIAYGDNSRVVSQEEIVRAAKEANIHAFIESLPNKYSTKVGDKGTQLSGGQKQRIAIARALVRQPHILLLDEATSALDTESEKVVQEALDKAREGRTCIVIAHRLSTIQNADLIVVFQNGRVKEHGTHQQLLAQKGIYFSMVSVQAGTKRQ

[8] = molecular target: Protein S100-A4 (Homo sapiens, UniProt P26447); assay: S100A4-myosin IIA binding inhibitor potency, dose response, biochemical, fluorescence polarization, cherry-picked hits (AID 687001); assay type: functional
Sequence of Protein S100-A4 (P26447 whole entry): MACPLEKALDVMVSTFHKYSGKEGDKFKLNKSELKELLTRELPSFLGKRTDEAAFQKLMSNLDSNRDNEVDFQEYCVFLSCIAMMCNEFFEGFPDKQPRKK

[9] = molecular target: T2, DNA repair protein RAD52 homolog (Homo sapiens, UniProt P43351); assay type: functional, biochemical
T2 sequence (P43351 whole entry): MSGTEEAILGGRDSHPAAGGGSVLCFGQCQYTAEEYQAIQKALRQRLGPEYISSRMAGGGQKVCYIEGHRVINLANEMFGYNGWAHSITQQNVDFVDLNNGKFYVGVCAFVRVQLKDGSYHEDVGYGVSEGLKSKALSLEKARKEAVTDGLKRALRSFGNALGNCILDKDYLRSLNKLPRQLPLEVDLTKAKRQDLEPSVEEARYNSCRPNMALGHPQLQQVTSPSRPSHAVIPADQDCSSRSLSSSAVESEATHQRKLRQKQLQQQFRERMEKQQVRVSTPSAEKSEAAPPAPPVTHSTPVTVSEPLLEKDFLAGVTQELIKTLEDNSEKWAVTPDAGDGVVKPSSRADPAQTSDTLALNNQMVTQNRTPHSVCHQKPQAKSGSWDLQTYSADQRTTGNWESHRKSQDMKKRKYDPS

[10] = molecular target: T3, DNA repair and recombination protein RAD54-like (Homo sapiens, UniProt Q92698); assay: inhibitors of human RAD54 branch migration, confirmation, biochemical, fluorescence, cherry-picked samples, dose series (AID 651657); assay type: functional
T3 sequence (Q92698 whole entry): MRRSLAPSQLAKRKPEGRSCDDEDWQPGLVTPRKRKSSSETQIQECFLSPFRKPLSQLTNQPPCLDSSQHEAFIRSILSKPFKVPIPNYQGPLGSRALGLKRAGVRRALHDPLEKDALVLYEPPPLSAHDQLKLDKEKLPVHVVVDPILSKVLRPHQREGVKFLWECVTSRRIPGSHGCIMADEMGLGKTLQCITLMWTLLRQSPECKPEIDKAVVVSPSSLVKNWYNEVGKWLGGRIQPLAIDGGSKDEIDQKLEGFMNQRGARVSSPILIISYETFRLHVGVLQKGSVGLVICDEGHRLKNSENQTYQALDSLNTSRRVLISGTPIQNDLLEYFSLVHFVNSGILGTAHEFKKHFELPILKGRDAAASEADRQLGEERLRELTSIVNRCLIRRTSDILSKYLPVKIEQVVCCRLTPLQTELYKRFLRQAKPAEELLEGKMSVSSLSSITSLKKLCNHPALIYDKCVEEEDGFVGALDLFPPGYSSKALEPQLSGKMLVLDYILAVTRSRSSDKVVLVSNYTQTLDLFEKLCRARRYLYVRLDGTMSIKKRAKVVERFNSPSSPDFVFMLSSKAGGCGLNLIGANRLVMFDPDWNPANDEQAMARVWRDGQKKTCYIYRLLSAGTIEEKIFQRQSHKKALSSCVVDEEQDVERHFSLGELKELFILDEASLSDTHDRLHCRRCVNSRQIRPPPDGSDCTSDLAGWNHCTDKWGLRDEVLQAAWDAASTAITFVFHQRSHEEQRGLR

Sequence of Beta Lactamase (Q932Y6 whole entry, the tested form may be a part): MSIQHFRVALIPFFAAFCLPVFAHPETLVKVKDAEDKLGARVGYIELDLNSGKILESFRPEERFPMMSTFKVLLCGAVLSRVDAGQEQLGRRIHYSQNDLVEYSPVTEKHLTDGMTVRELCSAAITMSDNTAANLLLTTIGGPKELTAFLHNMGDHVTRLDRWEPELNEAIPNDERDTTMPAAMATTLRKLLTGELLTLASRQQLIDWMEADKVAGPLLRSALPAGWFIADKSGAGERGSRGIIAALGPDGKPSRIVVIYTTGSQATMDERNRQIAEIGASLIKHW

O=C1C2C(c3ccccc3)C=CC(c3ccccc3)C2C(=O)N1c1ccccn1 (stereo not given) was tested, and the IC50 [1] was 59.6 µM (inactive), the IC50 [2] was 7.9 µM (active) and the IC50 [3] was 10.8 µM (active). The IC50 [4] was 11.5 µM (inactive) and the IC50 [5] was > 59.6 µM (inactive).
For COc1ccc(/C=N/NC(=O)c2ccccc2F)cc1CN1CCN(c2ccc(F)cc2)CC1, the EC50 [6] was 4.07 µM (active) and the EC50 [7] was 3.08 µM (active).
With Cc1cccc(-c2cc(N3CCCN(C)CC3)n3nccc3n2)c1 the AC50 [8] was 7.12 µM (active), the AC50 [9] was 2.45 µM (active) and the AC50 [10] was 24 µM (active).
